The test has as its system lymphocytes (fresh spleen cells). Description: Lymphocyte proliferation assay (ConA-induced spleen cells). The class given is cell-based, rat. The following applies: 48 hours; for IC50: Rattus norvegicus, inhibition of lymphocyte proliferation, 5 μg/mL ConA; for Inhibition rate (%): lymphocyte proliferation induced with 5 μg/mL ConA, test concentration not given. Here is the method:
Lymphocytotoxicity test: rats were euthanized by spinal dislocation method, their spleens were aseptically removed and ground to make a single cell suspension. After removing red blood cells with 2 mL of red blood cell lysis buffer, the cell concentration was adjusted to 2×10^6 cells/mL using RPMI-1640 medium containing 10% fetal bovine serum (FBS). Next, 100 μL of the 2×10^6 cells/mL cell suspension and 100 μL of the appropriate concentration of the tested compound were added to each well of a 96-well plate, and the plate was incubated at 37° C. with 5% CO2 for 48 hours. At the end of the incubation period, 10 μL of CCK8 was added to each well, and the plate was returned to the incubator for 5-7 hours. The OD450 value was then measured at 450 nm using an enzyme-linked immunosorbent assay reader.
Lymphocyte proliferation assay: fresh spleen cells at a concentration of 2×10^6 cells/mL were incubated for 48 hours in an incubator maintained at 37° C. and 5% CO2 for 48 hours, and the culture medium was induced for cell proliferation with 5 μg/mL of ConA, and the appropriate concentration of the tested compound was added to test its inhibitory activity on lymphocyte proliferation. The test results of some compounds are shown in the table below and figures accompanying the application: […]

As to `O=C(c1csc(-c2cnn3cccnc23)n1)N1CCC[C@H]1c1cccnc1` [IA-1], the IC50 amounted to 210 ± 8.87 nM and the “Inhibition rate (%)” value was determined as 81.38%.

With `O=C(NCc1cccnc1)c1csc(NC(=O)c2cnn3cccnc23)n1` [IA-2], the IC50 came out at 439 ± 24.2 nM and the “Inhibition rate (%)” value is given as 65.17%.

With `CC(C)=CCOC(=O)c1csc(-c2cnn3cccnc23)n1` [IA-4], half-maximal inhibition (IC50) required 438 ± 12.3 nM and the “Inhibition rate (%)” value worked out at 28.23%.

For `O=C(NCc1ccc(F)cc1F)c1csc(-c2cnn3ccccc23)n1` [IA-5], the “Inhibition rate (%)” value is 47.15%.

As to `O=C(Nc1ccccc1)c1csc(-c2cnn3cccnc23)n1` [IA-6], the “Inhibition rate (%)” value was 40.69%.

Regarding `CC(C)=CCC/C(C)=C/COC(=O)c1csc(-c2cnn3cccnc23)n1` [IA-7], the IC50 stood at 487 ± 18.3 nM and the “Inhibition rate (%)” value is on record as 52.55%.

On to `O=C(NCc1ccc(Cl)cc1Cl)c1csc(-c2cnn3cccnc23)n1` [IA-8], for which the “Inhibition rate (%)” value is 43.39%.

Consider `O=C(c1csc(-c2cnn3cccnc23)n1)N1CCC[C@H]1c1ccccc1` [IA-9], for which it took 399 ± 15.2 nM to reach half-maximal inhibition (IC50) and the “Inhibition rate (%)” value stood at 58.26%.

`O=C(Nc1cccnc1)c1csc(-c2cnn3cccnc23)n1` [IA-10]: the IC50 stood at 421 ± 21.1 nM and the “Inhibition rate (%)” value was determined as 59.61%.

As to `O=C(NCc1ccccc1)c1csc(-c2cnn3cccnc23)n1` [IA-11], the IC50 came to 263 ± 13.4 nM and the “Inhibition rate (%)” value is 70.42%.

Consider `O=C(NCCc1cccnc1)c1csc(-c2cnn3cccnc23)n1` [IA-12], for which half-maximal inhibition (IC50) required 236 ± 17.2 nM and the “Inhibition rate (%)” value came to 83.63%.

Regarding `O=C(c1csc(-c2cnn3cccnc23)n1)N1CCC[C@H]1c1ccncc1` [IA-13], half-maximal inhibition (IC50) required 410 ± 33.5 nM and the “Inhibition rate (%)” value worked out at 59.01%.

`COC(=O)[C@@H]1C[C@@H](O)CN1C(=O)c1csc(-c2cnn3cccnc23)n1` [IA-15]: the “Inhibition rate (%)” value is 30.78%.

Turning to `COC(=O)C1CCCCN1C(=O)c1csc(-c2cnn3cccnc23)n1` (stereo not shown) [IA-16], the “Inhibition rate (%)” value is 28.83%.

For `O=C(c1csc(-c2cnn3cccnc23)n1)N1CCC[C@H]1c1cc(F)ccc1F` [IA-17], the IC50 came out at 436 ± 33.4 nM and the “Inhibition rate (%)” value turned out to be 46.55%.

As to `O=C(NCCC(F)(F)F)c1csc(-c2cnn3cccnc23)n1` [IA-18], the “Inhibition rate (%)” value came to 43.09%.

On to `O=C(NCC(O)C(F)(F)F)c1csc(-c2cnn3cccnc23)n1` (stereo not shown) [IA-19], for which the “Inhibition rate (%)” value is 41.89%.

Regarding `O=C(NC1CCC(C(F)(F)F)CC1)c1csc(-c2cnn3cccnc23)n1` (stereo not shown) [IA-20], the “Inhibition rate (%)” value is recorded as 42.49%.

For the compound `O=C(NCCc1ccccn1)c1csc(-c2cnn3cccnc23)n1` [IA-21], the IC50 amounted to 488 ± 22 nM and the “Inhibition rate (%)” value came to 44.14%.

For the compound `O=C(NCc1cncnc1)c1csc(-c2cnn3cccnc23)n1` [IA-22], the “Inhibition rate (%)” value came to 32.73%.

With `O=C(c1csc(-c2cnn3cccnc23)n1)N1CCN(c2cccnc2)CC1` [IA-23], the IC50 amounted to 350 ± 17 nM and the “Inhibition rate (%)” value is on record as 60.57%.

`CC(C)=CCC/C(C)=C/CNC(=O)c1csc(-c2cnn3cccnc23)n1` [IA-24]: the IC50 was 457 ± 30.6 nM and the “Inhibition rate (%)” value was found to be 55.71%.

With `Cc1cnc2c(-c3nc(C(=O)NCCc4ccccn4)cs3)cnn2c1` [IA-25], the “Inhibition rate (%)” value is 37.24%.

For `O=C(c1nc(C(=O)N2CCC[C@H]2c2cccnc2)cs1)c1c[nH]c2ccccc12` [IIA-1], the “Inhibition rate (%)” value is given as 65.32%.

Turning to `CC(C)=CCC/C(C)=C/CC/C(C)=C/COC(=O)c1csc(C(=O)c2c[nH]c3ccccc23)n1` [IIA-2], the “Inhibition rate (%)” value is reported as 25.83%.

As for `C#COC(=O)c1csc(C(=O)c2c[nH]c3ccccc23)n1` [IIA-3], the “Inhibition rate (%)” value turned out to be 47.15%.

Regarding `CC(C)=CCOC(=O)c1csc(C(=O)c2c[nH]c3ccccc23)n1` [IIA-4], the “Inhibition rate (%)” value is listed as 48.95%.

Take `CC(C)=CCC/C(C)=C/COC(=O)c1csc(C(=O)c2c[nH]c3ccccc23)n1` [IIA-5]: the “Inhibition rate (%)” value is on record as 57.51%.

On to `O=C(NCc1cccnc1)c1csc(C(=O)c2c[nH]c3ccccc23)n1` [IIA-6], for which the IC50 worked out at 479 ± 14.2 nM and the “Inhibition rate (%)” value was found to be 56.46%.

For the compound `CC1CCC2(OC1)OC1CC3C4CC=C5CC(OC(=O)c6csc(C(=O)c7c[nH]c8ccccc78)n6)CCC5(C)C4CCC3(C)C1C2C` (stereo not shown) [IIA-7], the “Inhibition rate (%)” value turned out to be 38.74%.

`CC(C)CCCC(C)C1CCC2C3CC=C4CC(OC(=O)c5csc(C(=O)c6c[nH]c7ccccc67)n5)CCC4(C)C3CCC12C` (stereo not shown) [IIA-8]: the “Inhibition rate (%)” value is 50.45%.

Regarding `CCC(CCC(C)C1CCC2C3CC=C4CC(OC(=O)c5csc(C(=O)c6c[nH]c7ccccc67)n5)CCC4(C)C3CCC12C)C(C)C` (stereo not shown) [IIA-9], the “Inhibition rate (%)” value was determined as 48.2%.

Regarding `CC1CCC2(OC1)OC1CC3C4CC=C5CC(NC(=O)c6csc(C(=O)c7c[nH]c8ccccc78)n6)CCC5(C)C4CCC3(C)C1C2C` (stereo not shown) [IIA-10], the “Inhibition rate (%)” value turned out to be 23.57%.

On to `Cc1c(COC(=O)c2csc(C(=O)c3c[nH]c4ccccc34)n2)cccc1-c1ccccc1` [IIA-11], for which the “Inhibition rate (%)” value came to 25.08%.

`CC(=O)NCCNC(=O)c1csc(C(=O)c2c[nH]c3ccccc23)n1` [IIA-12]: the “Inhibition rate (%)” value is 27.93%.

Consider `COC(=O)C(CO)NC(=O)c1csc(C(=O)c2c[nH]c3ccccc23)n1` (stereo not shown) [IIA-13], for which the “Inhibition rate (%)” value came out at 43.99%.

For the compound `O=C(NCc1ccc(F)cc1F)c1csc(C(=O)c2c[nH]c3ccccc23)n1` [IIA-14], the “Inhibition rate (%)” value is 37.99%.

As to `O=C(NCCCN1CCCC1)c1csc(C(=O)c2c[nH]c3ccccc23)n1` [IIA-15], the “Inhibition rate (%)” value is listed as 28.53%.

Consider `O=C(Nc1cccnc1)c1csc(C(=O)c2c[nH]c3ccccc23)n1` [IIA-17], for which the “Inhibition rate (%)” value was 59.31%.

In the case of `O=C(c1nc(C(=O)N2CCC[C@H]2c2ccccc2)cs1)c1c[nH]c2ccccc12` [IIA-18], the “Inhibition rate (%)” value was 50.6%.

Consider `O=C(NCc1ccccc1)c1csc(C(=O)c2c[nH]c3ccccc23)n1` [IIA-19], for which the “Inhibition rate (%)” value turned out to be 46.55%.

For the compound `O=C(NCCc1ccncc1)c1csc(C(=O)c2c[nH]c3ccccc23)n1` [IIA-20], the “Inhibition rate (%)” value is reported as 42.64%.

Regarding `O=C(c1nc(C(=O)N2CCC[C@H]2c2ccncc2)cs1)c1c[nH]c2ccccc12` [IIA-21], the “Inhibition rate (%)” value is 54.35%.

With `O=C(c1nc(C(=O)N2CCCCC2C(=O)O)cs1)c1c[nH]c2ccccc12` (stereo not shown) [IIA-22], the IC50 came out at 479 ± 9.88 nM and the “Inhibition rate (%)” value came to 53.75%.

On to `O=C(c1nc(C(=O)N2C[C@H](O)C[C@H]2C(=O)O)cs1)c1c[nH]c2ccccc12` [IIA-23], for which it took 439 ± 25.3 nM to reach half-maximal inhibition (IC50) and the “Inhibition rate (%)” value was found to be 58.56%.

`O=C(NC(CO)C(=O)O)c1csc(C(=O)c2c[nH]c3ccccc23)n1` (stereo not shown) [IIA-24]: the IC50 is 421 ± 19.9 nM and the “Inhibition rate (%)” value was determined as 59.91%.

With `COC(=O)C1CCCCN1C(=O)c1csc(C(=O)c2c[nH]c3ccccc23)n1` (stereo not shown) [IIA-25], the “Inhibition rate (%)” value amounted to 49.85%.

With `COC(=O)[C@@H]1C[C@@H](O)CN1C(=O)c1csc(C(=O)c2c[nH]c3ccccc23)n1` [IIA-26], the “Inhibition rate (%)” value turned out to be 45.05%.

Regarding `O=C(NCC(F)(F)F)c1csc(C(=O)c2c[nH]c3ccccc23)n1` [IIA-27], the “Inhibition rate (%)” value was 51.8%.

On to `O=C(c1nc(C(=O)N2CCCC2c2cc(F)ncc2F)cs1)c1c[nH]c2ccccc12` (stereo not shown) [IIA-28], for which the “Inhibition rate (%)” value came out at 54.05%.

Regarding `O=C(NCCC(F)(F)F)c1csc(C(=O)c2c[nH]c3ccccc23)n1` [IIA-29], the “Inhibition rate (%)” value was determined as 43.54%.

For the compound `CC(C)=CCC/C(C)=C/CNC(=O)c1csc(C(=O)c2c[nH]c3ccccc23)n1` [IIA-30], the “Inhibition rate (%)” value was 26.88%.

`O=C(OCc1cn(CCc2ccccc2)nn1)c1csc(C(=O)c2c[nH]c3ccccc23)n1` [IIB-1]: the “Inhibition rate (%)” value was found to be 45.65%.

For `O=C(OCc1cn(Cc2ccc3ccccc3c2)nn1)c1csc(C(=O)c2c[nH]c3ccccc23)n1` [IIB-2], the “Inhibition rate (%)” value turned out to be 49.4%.

Regarding `O=C(OCc1cn(CCCCCCBr)nn1)c1csc(C(=O)c2c[nH]c3ccccc23)n1` [IIB-3], the IC50 was 468 ± 20.1 nM and the “Inhibition rate (%)” value came out at 39.79%.

For `O=C(OCc1cn(CCCCCCO)nn1)c1csc(C(=O)c2c[nH]c3ccccc23)n1` [IIB-4], the “Inhibition rate (%)” value came out at 21.17%.

With `O=C(OCc1cn(CC23CC4CC(CC(C4)C2)C3)nn1)c1csc(C(=O)c2c[nH]c3ccccc23)n1` [IIB-5], the “Inhibition rate (%)” value was found to be 59.01%.

On to `COC(=O)c1csc(C(=O)c2c[nH]c3ccccc23)n1` [ITE, reference compound], for which the “Inhibition rate (%)” value is given as 57.96%.

Turning to `Nc1ccccc1C(=O)CC(N)C(=O)O` (stereo not shown) [KYN, kynurenine, reference compound], the “Inhibition rate (%)” value was 51.65%.

Turning to `C=CC[C@@H]1/C=C(\C)C[C@H](C)C[C@H](OC)[C@H]2O[C@@](O)(C(=O)C(=O)N3CCCC[C@H]3C(=O)O[C@H](/C(C)=C/[C@@H]3CC[C@@H](O)[C@H](OC)C3)[C@H](C)[C@@H](O)CC1=O)[C@H](C)C[C@@H]2OC` [Tacrolimus, reference compound], half-maximal inhibition (IC50) required 504 ± 16.2 nM and the “Inhibition rate (%)” value is reported as 57.54%.

As a reminder, the IC50 is the concentration needed to halve the response being measured. A lower IC50 goes with higher potency.

Source of the values: patent US20230391783A1, “COMPOUND CONTAINING 2,4-THIAZOLE RING, PREPARATION METHOD THEREFOR, AND APPLICATION THEREOF” (SHANDONG UNIVERSITY, priority 2021, published 2023).
